From patent US5015661A, “Chromanes and their pharmaceutical compositions and methods” (Hoffmann-La Roche Inc., priority 1989, dated 1991)
Counter-ions that a name gives are not always drawn.

Target: superoxide-dependent, iron-promoted lipid peroxidation of native rat heart cardiac lipid liposomes
Experiment: Lipid peroxidation inhibition (in vitro testing of antiperoxidative agents, ANTI-OX), hypoxanthine-xanthine oxidase-Fe3+.ADP, rat cardiac liposomes, MDA equivalents
Type: biochemical
Settings: 60 min, 37° C., screened at 1.0 μM, IC50 determined if inhibition ≥ 50%, read-out: ANTI-OX IC-50
Method: The test system employs hypoxanthine-xanthine oxidase (XO)-Fe^3+. ADP as the free radical generator and purified, native rat-heart membrane phosphoglyceride in Hepes-KCl buffer, pH 7.4, as the substrate. Inhibition of superoxide-dependent, iron-promoted lipid peroxidation in the linear reaction phase (after 1 hour of reaction) is measured as the net formation of thiobarbituric acid (TBA)-reactive material. In this system, the TBA-reactive material, isolated by HPLC, is exclusively (>95%) malondialdehyde (MDA), a fragmentation end-product arising from fatty acyl hydroperoxides and cyclic endoperoxides. […]
a) Isolation and purification of Rat Cardiac Lipid
Conscious male Sprague-Dawley rats (~275g) maintained on a normal rodent diet were decapitated. The hearts were rapidly removed and perfused via the aorta with ice-cold 10 mM Hepes buffer, pH 7.4. The aorta and atria were removed, and the ventricular tissue was blotted and weighed (wet weight). The hearts were minced on ice with scissors and finally homogenized (100 mg tissue/ml ice-cold buffer) for 15 seconds (3×5 seconds) with a Tekmar Tissumizer at "maximal" setting. The homogenate was filtered through 4-ply cheesecloth, and homogenate lipids were extracted and purified by a modified Bligh-Dyer procedure (M.D. Marshall and M. Kates, Biochem. Biophys. Acta 260, 558 (1972). The cardiac lipids were stored in CHCl3 under nitrogen at -20° C. […]
b) Preparation of Cardiac Liposomes
Liposomes were prepared from extracted and purified, native rat heart cardiac lipid and were used as substrate for free-radical attack. Cardiac lipid (in CHCl3) was placed in a glass flask and evaporated to dryness under nitrogen at room temperature; the flask was gently rotated during evaporation to yield a thin, dry lipid film. The lipid was taken up in 10 mM Hepes-0.145M KCl, pH 7.4, and was resuspended by indirect an aerobic sonification for 15 minutes at room temperature. The liposome suspension was used immediately. […]
c) preparation of Fe^3+ -ADP Chelate
A chelate was formed in Hepes-KCl buffer between Fe^3+ (1.0mM FeCl3, final concentration) and ADP (10mM, final concentration) at pH 7.4 with stirring at room temperature. Chelation was allowed to proceed for 90 minutes prior to use. The chelate was prepared fresh for each days experiments to ensure iron solubility, effective chelation, and valence state. […]
d) Thiobarbituric Acid Reaction or Determination of Malondialdehvde Equivalents Malondialdehyde (MDA) equivalents were measured as thiobarbituric acid (TBA)-reactive material by the following modification of published methods. The reaction mixture. prepared fresh daily, contained water: BHT ([…] BHT in absolute ethanol): TBA (1.5% TBA in 0.2M Tris, pH 7.0) in the volume ratio 1:1:5. To each 1.0 ml of peroxidation reaction assayed (see below), 0.35 ml reaction mixture was added. After thorough mixing, the tubes were incubated in an 80° C. shaking water bath for 30 minutes. After this time, the tubes were plunged into an ice water bath, and the reaction was immediately stopped with 0.5 ml ice-cold 91% TCA followed by 2.0 ml CHCl3 After centrifugation for 30 minutes at 2000 rpm in a Sorval HL-8 rotor (4° C.), the absorbance of the washed, pink upper phase was read at 532 nm. A standard curve (0.8-40.0 nmol MDA) was run with every assay. For each curve, MDA was freshly prepared by acidification of 1,1,3,3 -tetraethoxypropane with 75% TCA-2.3N HCl (0.15 ml acid mixture with 1.0 ml suitably diluted tetraethoxypropane). Computer-assisted regression analysis of the standard curve was used to quantify the molar amounts of MDA equivalents in the experimental samples. […]
e) Lipid peroxidation Reaction
Cardiac liposomes were subjected to superoxidedependent. iron-promoted peroxidation in glass vessels to avoid the well-known antioxidant effects of many common polymerizing agents used to fabricate plastic labware. […]

IC50 | Structure (SMILES)
> 1000 nM | CCCc1cc(C#CC2(C)CCc3c(C)c(O)c(C)c(C)c3O2)ccc1O (racemic) [Example 37, rac-3,4-Dihydro-2-[(4-hydroxy-3-propylphenyl)ethynyl]-2,5,7,8-tetramethyl-2H-1-benzopyran-6-ol]

Target: T1, Δ^5 -lipoxygenase from rat basophilic leukemia (RBL-1) cells (Rattus norvegicus, UniProt P12527)
T1 construct: endogenous in cells; host or cells: RBL-1 rat basophilic leukemia cells (ATCC CRL 1378); 113,000×g supernatant (cytosolic fraction)
T1 sequence (P12527 1-673): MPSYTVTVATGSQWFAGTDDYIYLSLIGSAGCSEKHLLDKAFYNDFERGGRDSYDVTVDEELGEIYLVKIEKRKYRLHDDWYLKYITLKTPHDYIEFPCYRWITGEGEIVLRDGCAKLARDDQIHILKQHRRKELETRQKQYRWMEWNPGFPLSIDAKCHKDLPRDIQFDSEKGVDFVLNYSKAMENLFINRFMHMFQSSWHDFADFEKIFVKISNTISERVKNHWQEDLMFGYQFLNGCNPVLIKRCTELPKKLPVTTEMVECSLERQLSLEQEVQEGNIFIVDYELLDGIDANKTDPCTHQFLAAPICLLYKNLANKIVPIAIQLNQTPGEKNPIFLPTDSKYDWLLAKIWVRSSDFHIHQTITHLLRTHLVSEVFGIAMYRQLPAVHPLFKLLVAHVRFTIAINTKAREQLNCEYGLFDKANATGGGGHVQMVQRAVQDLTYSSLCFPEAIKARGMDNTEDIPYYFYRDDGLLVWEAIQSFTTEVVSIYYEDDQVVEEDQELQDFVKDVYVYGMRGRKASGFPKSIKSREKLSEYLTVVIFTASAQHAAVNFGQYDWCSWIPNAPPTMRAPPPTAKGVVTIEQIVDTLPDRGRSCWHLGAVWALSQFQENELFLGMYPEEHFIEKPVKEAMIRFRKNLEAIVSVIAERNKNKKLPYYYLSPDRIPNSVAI
Experiment: In vitro test for Δ^5 -lipoxygenase inhibitors (5-LO), RBL-1 cell enzyme, 5-HETE radioimmunoassay
Type: biochemical
Settings: RBL-1 5-LO; 10 min preincubation; 8.25 μM arachidonic acid, 10 min at 37° C.; 5-HETE formation; read-out: 5-LO IC-50
Method: IN VITRO TEST FOR Δ^5 -LIPOXYGENASE INHIBITORS Compounds of formula I of the invention were tested for their effect on Δ^5 -lipoxygenase from rat basophilic leukemia (RBL-1) cells. Materials. RBL-1 cells (CRL 1378) were obtained from the American TYpe Culture Collection, Rockville, MD. DMEM and glutamine were purchased from Flow Labs, McLean, VA. FBS (Gibco, Grand Island, NY) was heat-inactivated for 1 hour at 56° C. Reagents for protein determinations were obtained from Biorad, Rockville Center, NY. Arachidonic acid (approx. 99%), ATP (disodium slat), BHT, dextran (clinical grade), tetrasodium EDTA, gelatin, gentamycin sulfate solution, reduced glutathione, 1 M HEPES buffer, indomethacin, NaCl, reduced NADpH, Trizma 7.2, and Trizma 8.5 were purchased from Sigma Chemical, St. Louis, MO. CaCl2 dihydrate, Norit A charcoal, and citric acid monohydrate were obtained from Fisher Scientific, Pittsburgh, PA. […] MA. A synthetic 5-HETE standard was supplied by Dr. M. Rosenberger, Dept. of Medicinal Chemistry, Hoffmann-La Roche, Nutley, NJ; [see Corey, E.J., and Hashimoto, S. (1981 ) Tet. Letters, 22, 299-302 for method of preparation]. Ecoscint liquid sointillation fluid was purchased from National Diagnostics, Sommerville, NJ. Isolation of 5-lipoxygenase. […] Approximately 7-9 days after thawing, RBL-1 cells growing in log phase were seeded at a density of 7500 viable cells/ml in a closed 89-liter spinner flask. The cells were stirred constantly for 3-4 days at 37° C. until they reached a density greater than 500,000/ml but less than 800,00/ml. RBL-1 cells were harvested by centrifugation at 4° C. at 1500×g for 10 minutes and were washed 3 times with ice cold 0.05 M tris-HCl, pH 7.2, tetrasodium EDTA (buffer 1). The cells were washed last in 0.05 M Tris-HCl containing 14 μM indomethacin, 1 mM glutathione, 1.5 mM NaCl, and 1 mM tetrasodium EDTA (buffer 2), resuspended at a density of 5×108'/ml (approximately 10 ml) and disrupted manually at 4° C. using a 40 ml Dounce (type A pestle) homogenizer. After 5 minutes of homogenization. 95% cell lysis was confirmed by phase contrast microscopy. The broken cells were diluted 1:2 with buffer 2 and centrifuged at 12,380×g for 10 minutes at 4° C. to pellet cellular debris and granules. The 12,380×g supernatant was centrifuged at 113,000×g for 60 minutes to pellet microsomes. The high-speed supernatant (5.9±0.48 mg/ml protein) was frozen immediately in 1 ml aliquots using a dry ice/acetone bath. The isolated cytosolic fraction was stored in liquid N2 for up to 8 weeks without loss of 5-LO enzyme activity. Lipoxygenase Assay. Compounds Were dissolved at 25 mM concentration in DMSO, then diluted to final concentrations using 95% ethanol. For a typical enzyme assay, the partially purified 5-LO preparation was preincubated with drug or vehicle for 10 minutes at 30° C. The assay tubes were then transferred at a 37° C. water bath where they received arachidonic acid (8.25 μM final concentration) to initiate 5-LO activity. In addition to enzyme and substrate, each reaction tube contained: 12.5 μmoles of Tris-HCl (pH 7.2), 25 nmoles glutathione, 0.35 nmoles indomethacin and 1.25 μmoles of CaCl2 and ATP to yield a total of volume of 250 μl. The enzyme reaction was terminated after 10 minutes by the addition of 75μl […] citric acid to yield pH 3.5. The samples were immediately cooled on ice and neutralized by dilution with 0.05 M Tris-HCl, pH 8.5, which contained 25 mg/1 BHT. A boiled cytosol control was placed at the end of each assay to measure non-enzymatic oxidation of arachidonic acid. The mean specific activity of the 5-LO enzyme preparation was approximately 66.16±14.39 pmol 5-HETE/min/mg protein. Radioimmunoassay for 5-HETE. Under the assay conditions described, the 5-LO catalyzed the conversion of arachidonic acid to 5-HPETE which, as a consequence o peroxidase activity, was reduced to 5-HETE. A specific radioimmunoassay was employed to quantitate the amount (pmoles) of 5-HETE formed during the enzyme reaction. […]

IC50 | Structure (SMILES)
10 nM | Cc1c(C)c2c(c(C)c1O)CCC(C)(C#Cc1ccccc1NC(=O)C(F)(F)F)O2 (racemic) [Example 44, rac-2,2,2-Trifluoro-N-{2-[(3,4-dihydro-6-hydroxy-2,5,7,8-tetramethyl-2H-1-benzopyran-2-yl)ethynyl]phenyl}acetamide]
45 nM | Cc1c(C)c2c(c(C)c1O)CCC(C)(C#Cc1ccc3c(c1)N(C(=O)C(F)(F)F)CCO3)O2 (racemic) [Example 45, rac-3,4-Dihydro-6-[(3,4-dihydro-6-hydroxy-2,5,7,8-tetramethyl2H-1-benzopyran-2-yl)ethynyl]-4(trifluoroacetyl)-2H-1,4-benzoxazine]
18 nM | Cc1c(C)c2c(c(C)c1O)CCC(C)(C#Cc1ccc3c(c1)NCCO3)O2 (racemic) [Example 47, rac-2-[(3,4-dihydro-2H-1,4-benzoxazine-6-yl)ethynyl]-3,4-dihydro-2,5,7,8-tetramethyl-2H-1-benzopyran-6-ol hydrochloride]
38 nM | CC(=O)Oc1cc(CCC2(C)CCc3c(C)c(O)c(C)c(C)c3O2)ccc1O (racemic) [Example 67, rac-4-[2-(3,4-Dihydro-6-hydroxy-2,5,7,8-tetramethyl-2H-1-benzopyran-2-yl)ethyl]-1,2-benzenediol-2-acetate]
70 nM | COc1cc(CN)cc(CCC2(C)CCc3c(C)c(O)c(C)c(C)c3O2)c1O (racemic) [Example 68, rac-{2-[5-(Aminomethyl)-2-hydroxy-3-methoxyphenyl]ethyl}-3,4-dihydro-2,5,7,8-tetramethyl-2H-1-benzopyran-6-ol hydrochloride]
